Experimental data taken from ChEMBL document CHEMBL5303766, “Data for DCP probe FHT-2344” (2022).

What was measured:
[1] = molecular target: Casein kinase II subunit alpha (Homo sapiens) (UniProt P68400); test: CSNK2A1A SGC Tm panel (DSF); settings: for ΔTm: Compound concentration 10.0 uM
[2] = molecular target: T1, Serine/threonine-protein kinase tousled-like 1 (Homo sapiens) (UniProt Q9UKI8); test: TLK1 SGC Tm panel (DSF); settings: for ΔTm: Compound concentration 10.0 uM
T1 sequence (whole entry): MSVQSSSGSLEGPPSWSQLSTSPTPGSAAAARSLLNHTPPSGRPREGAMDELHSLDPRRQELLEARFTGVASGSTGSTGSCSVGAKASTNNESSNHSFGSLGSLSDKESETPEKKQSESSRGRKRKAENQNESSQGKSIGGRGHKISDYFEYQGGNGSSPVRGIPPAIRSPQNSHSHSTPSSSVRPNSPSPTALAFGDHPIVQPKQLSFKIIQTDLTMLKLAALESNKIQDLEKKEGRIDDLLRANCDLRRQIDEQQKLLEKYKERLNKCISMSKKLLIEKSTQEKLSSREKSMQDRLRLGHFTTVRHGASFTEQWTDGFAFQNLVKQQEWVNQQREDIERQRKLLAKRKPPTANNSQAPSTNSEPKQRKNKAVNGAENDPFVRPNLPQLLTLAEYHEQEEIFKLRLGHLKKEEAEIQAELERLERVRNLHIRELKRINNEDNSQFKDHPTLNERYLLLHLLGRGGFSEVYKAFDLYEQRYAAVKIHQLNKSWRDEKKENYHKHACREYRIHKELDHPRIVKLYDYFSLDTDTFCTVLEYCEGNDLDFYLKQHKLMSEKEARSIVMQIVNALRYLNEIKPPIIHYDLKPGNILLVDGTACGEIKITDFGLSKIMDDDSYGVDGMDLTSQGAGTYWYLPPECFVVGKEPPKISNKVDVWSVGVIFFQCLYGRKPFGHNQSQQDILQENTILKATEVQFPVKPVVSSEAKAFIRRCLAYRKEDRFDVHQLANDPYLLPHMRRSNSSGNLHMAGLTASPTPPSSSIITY

[3] = molecular target: D(3) dopamine receptor (Homo sapiens) (UniProt P35462); settings: Compound concentration 10.0 uM
Sequence of D(3) dopamine receptor (Homo sapiens) (P35462 whole entry): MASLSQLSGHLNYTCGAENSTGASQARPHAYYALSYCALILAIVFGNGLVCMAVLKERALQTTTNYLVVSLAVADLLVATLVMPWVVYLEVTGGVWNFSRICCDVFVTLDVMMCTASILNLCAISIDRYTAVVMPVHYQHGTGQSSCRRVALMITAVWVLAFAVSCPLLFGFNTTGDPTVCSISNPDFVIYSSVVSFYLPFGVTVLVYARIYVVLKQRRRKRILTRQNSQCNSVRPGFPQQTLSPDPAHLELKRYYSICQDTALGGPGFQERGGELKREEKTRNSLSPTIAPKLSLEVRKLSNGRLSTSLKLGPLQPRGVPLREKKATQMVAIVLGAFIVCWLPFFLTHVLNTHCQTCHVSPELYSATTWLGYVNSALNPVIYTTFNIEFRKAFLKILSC

[4] = molecular target: T2, Serine/threonine-protein kinase 3 (Homo sapiens) (UniProt Q13188); test: STK3 SGC Tm panel (DSF); settings: for ΔTm: Compound concentration 10.0 uM
T2 sequence (whole entry): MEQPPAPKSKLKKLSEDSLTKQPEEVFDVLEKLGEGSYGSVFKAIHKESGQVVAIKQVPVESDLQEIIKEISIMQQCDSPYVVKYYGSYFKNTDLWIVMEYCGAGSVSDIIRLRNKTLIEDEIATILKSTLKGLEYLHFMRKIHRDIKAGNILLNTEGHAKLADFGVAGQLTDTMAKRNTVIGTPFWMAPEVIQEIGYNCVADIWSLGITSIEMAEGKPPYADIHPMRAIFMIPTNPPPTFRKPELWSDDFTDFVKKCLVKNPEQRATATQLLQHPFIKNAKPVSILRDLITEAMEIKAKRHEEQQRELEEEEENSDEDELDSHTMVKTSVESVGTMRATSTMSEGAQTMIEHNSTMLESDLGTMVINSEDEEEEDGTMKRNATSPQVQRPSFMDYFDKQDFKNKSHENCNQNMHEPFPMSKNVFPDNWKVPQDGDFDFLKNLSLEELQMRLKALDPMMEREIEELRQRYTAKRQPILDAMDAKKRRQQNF

[5] = molecular target: 5-hydroxytryptamine receptor 6 (Homo sapiens) (UniProt P50406); settings: Compound concentration 10.0 uM
Sequence of 5-hydroxytryptamine receptor 6 (Homo sapiens) (P50406 whole entry): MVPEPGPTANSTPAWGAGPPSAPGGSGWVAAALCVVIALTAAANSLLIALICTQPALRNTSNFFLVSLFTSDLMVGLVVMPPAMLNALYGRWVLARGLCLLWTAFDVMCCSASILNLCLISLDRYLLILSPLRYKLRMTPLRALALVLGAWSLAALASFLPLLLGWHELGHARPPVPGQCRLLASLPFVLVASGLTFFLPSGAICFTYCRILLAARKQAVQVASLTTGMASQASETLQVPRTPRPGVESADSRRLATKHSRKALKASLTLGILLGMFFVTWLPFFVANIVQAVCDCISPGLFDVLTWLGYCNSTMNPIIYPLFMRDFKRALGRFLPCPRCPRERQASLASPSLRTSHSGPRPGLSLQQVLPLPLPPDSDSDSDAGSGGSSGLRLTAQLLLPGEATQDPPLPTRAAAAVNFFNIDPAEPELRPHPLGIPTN

[6] = molecular target: Mu-type opioid receptor (Homo sapiens) (UniProt P35372); settings: Compound concentration 10.0 uM
Sequence of Mu-type opioid receptor (Homo sapiens) (P35372 whole entry): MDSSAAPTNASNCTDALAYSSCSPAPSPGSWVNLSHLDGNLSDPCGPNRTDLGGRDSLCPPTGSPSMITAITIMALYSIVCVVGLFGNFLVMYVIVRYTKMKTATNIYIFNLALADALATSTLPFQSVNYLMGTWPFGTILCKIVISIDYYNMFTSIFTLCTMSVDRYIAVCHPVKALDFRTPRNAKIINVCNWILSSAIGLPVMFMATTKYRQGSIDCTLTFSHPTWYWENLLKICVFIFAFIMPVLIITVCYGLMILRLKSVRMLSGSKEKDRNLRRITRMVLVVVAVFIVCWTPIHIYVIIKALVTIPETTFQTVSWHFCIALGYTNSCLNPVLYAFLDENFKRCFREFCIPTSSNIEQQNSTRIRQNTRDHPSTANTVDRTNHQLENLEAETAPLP

[7] = molecular target: T3, MAP/microtubule affinity-regulating kinase 4 (Homo sapiens) (UniProt Q96L34); test: MARK4 SGC Tm panel (DSF); settings: for ΔTm: Compound concentration 10.0 uM
T3 sequence (whole entry): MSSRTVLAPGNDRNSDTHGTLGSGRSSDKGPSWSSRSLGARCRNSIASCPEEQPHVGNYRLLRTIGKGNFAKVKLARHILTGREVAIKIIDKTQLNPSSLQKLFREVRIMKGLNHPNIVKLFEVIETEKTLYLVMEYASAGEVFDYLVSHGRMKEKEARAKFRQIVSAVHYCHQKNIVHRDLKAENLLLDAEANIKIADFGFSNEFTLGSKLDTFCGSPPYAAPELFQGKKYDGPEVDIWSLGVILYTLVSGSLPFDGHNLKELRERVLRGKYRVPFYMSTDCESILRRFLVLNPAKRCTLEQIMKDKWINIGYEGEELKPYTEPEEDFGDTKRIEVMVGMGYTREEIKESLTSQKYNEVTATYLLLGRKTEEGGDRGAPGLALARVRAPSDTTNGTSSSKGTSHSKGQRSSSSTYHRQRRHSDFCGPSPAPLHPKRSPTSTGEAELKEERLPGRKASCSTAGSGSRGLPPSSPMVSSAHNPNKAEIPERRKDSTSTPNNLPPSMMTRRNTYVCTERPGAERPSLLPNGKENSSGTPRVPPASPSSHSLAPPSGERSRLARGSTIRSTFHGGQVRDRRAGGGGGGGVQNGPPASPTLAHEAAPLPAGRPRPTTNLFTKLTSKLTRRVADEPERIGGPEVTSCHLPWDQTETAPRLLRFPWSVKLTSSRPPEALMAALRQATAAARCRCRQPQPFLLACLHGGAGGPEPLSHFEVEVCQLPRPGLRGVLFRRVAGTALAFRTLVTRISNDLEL

[8] = molecular target: Serine/threonine-protein kinase Nek7 (Homo sapiens) (UniProt Q8TDX7); test: NEK7 SGC Tm panel (DSF); settings: for ΔTm: Compound concentration 10.0 uM
Sequence of Serine/threonine-protein kinase Nek7 (Homo sapiens) (Q8TDX7 whole entry, looked up): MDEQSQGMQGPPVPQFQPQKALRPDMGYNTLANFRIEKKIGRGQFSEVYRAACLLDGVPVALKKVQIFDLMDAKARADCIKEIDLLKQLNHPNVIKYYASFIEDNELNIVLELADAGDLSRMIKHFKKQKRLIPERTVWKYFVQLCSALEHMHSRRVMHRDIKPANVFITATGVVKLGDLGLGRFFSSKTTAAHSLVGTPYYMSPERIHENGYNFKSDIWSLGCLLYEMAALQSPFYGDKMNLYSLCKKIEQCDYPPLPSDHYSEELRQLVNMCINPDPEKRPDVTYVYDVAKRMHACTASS

[9] = molecular target: Ephrin type-A receptor 5 (Homo sapiens) (UniProt P54756); test: EPHA5 SGC Tm panel (DSF); settings: for ΔTm: Compound concentration 10.0 uM
Sequence of Ephrin type-A receptor 5 (Homo sapiens) (P54756 whole entry): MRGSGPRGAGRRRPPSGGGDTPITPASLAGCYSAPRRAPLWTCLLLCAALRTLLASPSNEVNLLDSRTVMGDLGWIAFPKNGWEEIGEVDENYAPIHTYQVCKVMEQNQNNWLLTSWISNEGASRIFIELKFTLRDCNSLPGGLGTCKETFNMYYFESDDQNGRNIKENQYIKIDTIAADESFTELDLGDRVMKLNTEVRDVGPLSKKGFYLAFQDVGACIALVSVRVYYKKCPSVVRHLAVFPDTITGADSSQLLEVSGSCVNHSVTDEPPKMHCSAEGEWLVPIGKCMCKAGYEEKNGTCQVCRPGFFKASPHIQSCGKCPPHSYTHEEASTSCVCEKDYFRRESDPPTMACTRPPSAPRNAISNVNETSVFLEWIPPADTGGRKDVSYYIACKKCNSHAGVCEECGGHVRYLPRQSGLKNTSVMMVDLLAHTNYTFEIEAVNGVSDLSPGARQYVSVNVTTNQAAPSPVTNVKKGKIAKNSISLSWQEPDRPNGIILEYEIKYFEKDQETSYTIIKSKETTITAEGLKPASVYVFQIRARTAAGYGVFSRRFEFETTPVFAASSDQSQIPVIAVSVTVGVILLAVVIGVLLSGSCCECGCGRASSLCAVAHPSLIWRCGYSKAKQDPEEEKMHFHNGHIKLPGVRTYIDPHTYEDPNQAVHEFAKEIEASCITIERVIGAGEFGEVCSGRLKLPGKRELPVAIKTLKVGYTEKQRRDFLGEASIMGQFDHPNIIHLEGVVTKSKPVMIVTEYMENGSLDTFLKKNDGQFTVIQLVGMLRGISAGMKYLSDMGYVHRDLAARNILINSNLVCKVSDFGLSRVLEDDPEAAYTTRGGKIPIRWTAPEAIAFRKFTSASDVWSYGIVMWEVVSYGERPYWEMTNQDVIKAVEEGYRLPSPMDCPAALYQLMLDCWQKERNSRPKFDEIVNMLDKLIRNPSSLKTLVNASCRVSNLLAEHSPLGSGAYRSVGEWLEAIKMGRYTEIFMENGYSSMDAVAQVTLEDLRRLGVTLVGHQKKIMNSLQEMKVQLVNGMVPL

Sequence of Casein kinase II subunit alpha (Homo sapiens) (P68400 whole entry, looked up): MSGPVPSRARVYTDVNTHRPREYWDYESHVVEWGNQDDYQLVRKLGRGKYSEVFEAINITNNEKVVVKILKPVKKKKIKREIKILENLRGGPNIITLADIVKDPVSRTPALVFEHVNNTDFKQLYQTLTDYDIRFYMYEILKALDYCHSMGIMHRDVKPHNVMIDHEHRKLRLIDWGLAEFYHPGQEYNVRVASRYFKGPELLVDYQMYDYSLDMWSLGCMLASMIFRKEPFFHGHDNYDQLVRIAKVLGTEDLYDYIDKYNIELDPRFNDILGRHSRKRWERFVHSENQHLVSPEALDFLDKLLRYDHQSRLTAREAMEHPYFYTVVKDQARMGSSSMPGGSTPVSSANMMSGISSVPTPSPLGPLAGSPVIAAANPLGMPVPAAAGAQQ

Q: What does the source list for `C[C@H](NC(=O)c1cn(C2(C#N)CC2)cn1)C(=O)Nc1nc(-c2cccc(-c3ccn(C)n3)c2)cs1`?
A: delta Tm Staurosporine positive control [1]: 2.85; ΔTm [1]: 0.0573; delta Tm Staurosporine positive control [2]: 9.52; ΔTm [2]: 1.6; inhibition [3]: 28.2%; delta Tm Staurosporine positive control [4]: 15.5; ΔTm [4]: 0.324; inhibition [5]: 16.4%; inhibition [6]: 8.54%; delta Tm Staurosporine positive control [7]: 15.8; ΔTm [7]: 0.462; delta Tm Staurosporine positive control [8]: 1.29; ΔTm [8]: 0.0219; delta Tm Staurosporine positive control [9]: 8.98; ΔTm [9]: 0.273

Q: What does the source list for `COC[C@H](NC(=O)c1ccn(S(C)(=O)=O)c1)C(=O)Nc1nc(-c2cccc(-c3ccn(C)n3)c2)cs1`?
A: delta Tm Staurosporine positive control [1]: 2.85; ΔTm [1]: -0.131; delta Tm Staurosporine positive control [2]: 9.52; ΔTm [2]: 1.38; inhibition [3]: 13%; delta Tm Staurosporine positive control [4]: 15.5; ΔTm [4]: 1.34; inhibition [5]: 8.9%; inhibition [6]: 18.8%; delta Tm Staurosporine positive control [7]: 15.8; ΔTm [7]: 0.492; delta Tm Staurosporine positive control [8]: 1.29; ΔTm [8]: 0.0604; delta Tm Staurosporine positive control [9]: 8.98; ΔTm [9]: 0.13
